Where a SMILES comes first, the peptide text is derived from it. The star is where a group is joined. Cbz = O=C(OCc1ccccc1)*
System: CL4176 transgenic strain of C. elegans
Test: Paralysis assay after induction of Ab peptide expression in C. elegans
Format: in vivo, Caenorhabditis elegans
Conditions: third day after inducing Ab peptide expression at 23° C.; 100 μl of fraction per plate; ZPP 0.1 mM
Experimental: An oxidative stress assay using the CL4176 transgenic strain of C. elegans was carried out, characterized by expressing the human amyloid beta-peptide (Abl-42) after temperature induction.
Prior data in the literature indicate that the formation of amyloid beta-peptide plaques is preceded by oxidative stress (Drake et al, “Oxidative stress precedes fibrillar deposition of Alzheimer's disease amyloid beta-peptide (1-42) in a transgenic Caenorhabditis elegans model” Neurobiol Aging 2003, 24(3):415-20). Therefore, it is interesting to evaluate if the hypothetical reduction of fibrillar deposition of Ab peptides in the neurons produced by the action of a molecule or compound gives rise to greater resistance against oxidative stress treatments. Furthermore, the expression of said peptide in these transgenic animals produces a paralysis that can be evaluated after adding the molecule or compound of interest.
To carry out the experiment, worms of the CL4176 strain having a synchronized age by means of plate cultivation of NG at 16° C. were obtained. The eggs were collected in NG plates which contained 100 μl of each peptide fraction (F11, F12, F14 and F18). […] For the first 3 days after induction, the number of worms paralyzed in each assayed condition was analyzed. […] The plates were incubated at 23° C. and after 5 hours the total number of worms that survived treatment were counted.

**Q.** With `O=C[C@@H]1CCCN1C(=O)[C@@H]1CCCN1C(=O)OCc1ccccc1` [Z-prolyl prolinal] (Cbz-Pro-Pro-aldehyde) as the molecule, how does the “percentage of non-paralyzed worms” value read?
**A.** 99.44%

Reference: US8946383B2, “Obtaining cocoa extracts rich in bioactive peptides with ACE and PEP enzyme inhibitory activity” (Naturex, priority 2008, dated 2015)
